# In patent publication US8524290B2, “Non-occluding nasal moisturizer and methods of use” (priority 2010, dated 2013):
# System: nasal epithelium
# Assay: Transepidermal water loss of the nasal epithelium (TEWAMETER 300 evaporation meter)
# Type: in vivo
# Details: single nostril, after application, compared with basal state
# Protocol: A single nostril is administered the test composition of Example 1 or a comparator solution, and transepidermal water loss is measured using an evaporation meter ([…] 300; Courage+Khazaka electronic GmbH, Germany) using the original probe. Subjects are positioned in a seated posture and hold their breath during measurements. Basal measurements are performed prior to application of a test composition.
smiles,measurement,value
O [water],transepidermal water loss,Little change
